This is an account of results in PMC7095208 (Nature, 2014).

As usually defined, the EC50 is the concentration needed to bring the measured effect to its halfway point. Read a high EC50 as a less potent agent. The term EC90 denotes the point of the concentration-response curve where the effect stands at 90%. Broadly, the half-life is the time in which the quantity being followed falls by half.

Like-named read-outs stand apart in the source and are kept apart here.

The nature of series [1]: in vitro. The following applies: dog, pH 1.
In a further series the test system is MARV-Musoke. The settings on record: guinea pig, in vivo.
Another series relates to SUDV Boniface. Briefly: microbe, parasite or virus in culture. Type of series: cell-based. The settings on record: Sudan ebolavirus, HeLa.
Another series deals with MARV Angola. As to the kind of experiment: organism not typed. Type of series: cell-based, Marburg virus. The settings on record: HeLa.
Series [2] relates to Rift Valley fever virus (ZH501). The settings on record: mouse, in vivo.
In a further series the target is hERG ion channel (Homo sapiens, UniProt Q12809). As to the kind of experiment: hERG ion channel current. The settings on record: 30 µM; data not shown. The series is classed as biochemical. (In general: hERG is a cardiac potassium channel; its block is linked to QT prolongation.)
Series [3] can be described thus: in vitro. The settings on record: human, s9, half-life (t1/2).
For series [4], the system named is EBOV minigenome RNA replicon. The series is classed as cell-based, Ebola virus.
The test system of another series is MARV Ci67. Briefly: organism not typed. Type of series: cell-based, Marburg virus. The settings on record: HeLa.
Series [5] is described as follows: in vivo. The following applies: cynomolgus monkey, im.
The nature of series [6]: in vivo. The settings on record: mouse, iv.
The subject of the next series is MARV-Angola. The following applies: guinea pig, in vivo.
Series [7] is described as follows: in vivo. The settings on record: Sprague-Dawley, rat.
A further series deals with Marburg virus - Musoke. The series is classed as cell-based.
The subject of a further series is EBOV Kikwit. As to the kind of experiment: microbe, parasite or virus in culture. The following applies: Zaire ebolavirus, HeLa. Type of series: cell-based, Ebola virus.
The next series concerns JUNV Romero. As to the kind of experiment: organism not typed. The series is classed as cell-based, Junín virus. The settings on record: HeLa.
Another series relates to human lymphocytes. The following applies: 787 µM.
A further series has as its system HeLa cells. The following applies: human.
The nature of series [8]: in vitro. The following applies: human.
In another series the test system is RVFV ZH5018. As to the kind of experiment: microbe, parasite or virus in culture. Type of series: cell-based. The settings on record: Rift Valley fever virus, HeLa.
Another series deals with MARV Musoke. Briefly: organism not typed. Type of series: cell-based, Marburg virus. The settings on record: HeLa.
Series [9] relates to filoviruses. The following applies: cited from earlier work.
For series [10] the following is noted: rat, in vivo, im.
Another series deals with HCV NS5B RNA polymerase (Hepatitis C virus genotype 1b, UniProt P26663). Type of series: biochemical.
In series [11] the test system is filoviruses. The following applies: in vivo; cited from earlier work.

Chain of HCV NS5B RNA polymerase (P26663 2420-2989 limits assumed): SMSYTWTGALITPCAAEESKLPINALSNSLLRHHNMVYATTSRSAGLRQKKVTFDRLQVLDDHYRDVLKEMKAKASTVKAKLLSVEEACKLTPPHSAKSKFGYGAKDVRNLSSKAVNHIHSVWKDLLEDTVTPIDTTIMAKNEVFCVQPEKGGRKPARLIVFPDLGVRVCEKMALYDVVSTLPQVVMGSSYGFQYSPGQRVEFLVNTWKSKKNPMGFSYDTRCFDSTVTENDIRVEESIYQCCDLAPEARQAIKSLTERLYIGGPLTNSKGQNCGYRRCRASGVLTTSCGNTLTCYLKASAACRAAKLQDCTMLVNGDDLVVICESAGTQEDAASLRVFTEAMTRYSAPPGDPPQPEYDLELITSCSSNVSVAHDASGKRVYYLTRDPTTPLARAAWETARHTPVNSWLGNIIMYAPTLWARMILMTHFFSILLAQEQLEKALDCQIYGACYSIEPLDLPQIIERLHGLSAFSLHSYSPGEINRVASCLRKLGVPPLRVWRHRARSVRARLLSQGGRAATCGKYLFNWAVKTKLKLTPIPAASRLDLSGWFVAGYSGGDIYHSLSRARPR
Chain of hERG ion channel (Q12809 whole entry): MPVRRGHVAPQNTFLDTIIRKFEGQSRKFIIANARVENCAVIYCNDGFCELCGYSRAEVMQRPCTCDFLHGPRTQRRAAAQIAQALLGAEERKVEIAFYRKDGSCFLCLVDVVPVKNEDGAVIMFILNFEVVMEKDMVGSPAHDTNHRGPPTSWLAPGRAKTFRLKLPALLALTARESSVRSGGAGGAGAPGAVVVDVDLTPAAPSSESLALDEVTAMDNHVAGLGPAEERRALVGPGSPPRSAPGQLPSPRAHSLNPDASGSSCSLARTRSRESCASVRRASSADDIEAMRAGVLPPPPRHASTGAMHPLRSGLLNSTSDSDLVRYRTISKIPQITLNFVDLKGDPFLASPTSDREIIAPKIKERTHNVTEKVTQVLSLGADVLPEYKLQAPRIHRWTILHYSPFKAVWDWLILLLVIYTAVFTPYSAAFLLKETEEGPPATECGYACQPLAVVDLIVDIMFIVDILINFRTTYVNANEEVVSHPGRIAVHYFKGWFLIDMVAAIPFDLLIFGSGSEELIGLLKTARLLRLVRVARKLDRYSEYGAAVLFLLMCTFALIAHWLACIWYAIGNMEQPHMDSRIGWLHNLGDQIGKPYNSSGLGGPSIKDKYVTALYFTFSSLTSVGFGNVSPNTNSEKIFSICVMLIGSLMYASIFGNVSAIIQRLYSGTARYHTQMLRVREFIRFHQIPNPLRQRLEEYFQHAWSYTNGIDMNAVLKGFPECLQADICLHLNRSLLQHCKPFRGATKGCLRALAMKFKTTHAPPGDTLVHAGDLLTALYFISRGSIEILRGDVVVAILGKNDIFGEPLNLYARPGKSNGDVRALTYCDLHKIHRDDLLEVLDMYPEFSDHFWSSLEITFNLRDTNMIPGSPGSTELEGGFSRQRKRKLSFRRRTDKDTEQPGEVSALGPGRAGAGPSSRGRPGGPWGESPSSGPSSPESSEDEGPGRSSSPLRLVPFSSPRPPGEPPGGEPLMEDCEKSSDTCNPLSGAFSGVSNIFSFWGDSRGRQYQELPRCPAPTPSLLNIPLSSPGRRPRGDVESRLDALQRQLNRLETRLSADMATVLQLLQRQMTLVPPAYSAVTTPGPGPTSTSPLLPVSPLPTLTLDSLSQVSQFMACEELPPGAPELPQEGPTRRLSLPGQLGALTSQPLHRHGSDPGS

For `Nc1ncnc2c([C@@H]3N[C@H](CO)[C@@H](O)[C@H]3O)c[nH]c12` [BCX4430, (2S,3S,4R,5R)-2-(4-amino-5H-pyrrolo[3,2-d]pyrimidin-7-yl)-5-(hydroxymethyl)pyrrolidine-3,4-diol], the CC50 in “in vitro [1]” was above 296 µM; with HeLa cells it was 242 µM; in “in vitro [8]”, above 296 µM. Besides, the post-exposure protection entry in the series on MARV-Musoke and with MARV-Angola was “significant post-exposure protection” each time. The EC50 in the series with SUDV Boniface came to 3.4 µM; in the series with MARV Angola it was 5 µM; in the series with MARV Ci67 it was 6.7 µM; in the series on EBOV Kikwit it was 11.8 µM; with JUNV Romero it was 42.2 µM; in the series with RVFV ZH5018 it was 41.6 µM. In the series on MARV Musoke, a half-maximal response (EC50) required 4.4 µM. Further, the EC90 with SUDV Boniface was 10.3 µM; with MARV Angola, 12.3 µM; in the series with MARV Ci67, 16.1 µM; in the series on EBOV Kikwit it was 25.4 µM; in the series with JUNV Romero, above 100 µM; with RVFV ZH5018, 98 µM. For the same molecule, the EC90 in the series on MARV Musoke was 10.5 µM. The “protection against lethal Rift Valley fever virus challenge” value in series [2] was “protected”. Moreover, on hERG ion channel, the “inhibition of hERG ion channel current” value is recorded as “did not inhibit”. Further, the half-life in the series “in vitro [3]” is above 54 min; in the series “in vivo [5]”, below 5 min; in “in vivo [6]”, below 5 min; in the series “in vivo [7]”, below 5 min. Also, the “GFP expression in EBOV minigenome replicon assay” value in [4] is “reduces expression of green fluorescent protein”. In addition, the “incorporation of BCX4430-MP into human RNA or DNA” value with human RNA or DNA is on record as “no evidence of BCX4430-MP incorporation”. In the series with MARV-Angola, the protection entry was “protected”. Moreover, the “production of infectious MARV virus” value in the series with Marburg virus - Musoke is “no detectable infectious MARV virus”. Moreover, the animals surviving in the series on MARV (Musoke variant) (cynomolgus monkey, in vivo) is on record as 83%; in the series with MARV (Musoke variant) (n = 6) it was “All animals”. The “haemorrhagic disease manifestations (PT, aPTT, serum AST, bilirubin) vs vehicle” value in the series with MARV (Musoke variant) (cynomolgus monkey, in vivo) is “ameliorated”. The “serum MARV burden” value in the series with MARV (Musoke variant) (cynomolgus monkey, in vivo) is “significantly and substantially reduced”. Also, the tolerability result with MARV (Musoke variant) (cynomolgus monkey, in vivo) was “well tolerated”. Besides, the chromosomal aberrations entry in the series on human lymphocytes was “no detectable chromosomal aberrations”.
For the molecule `NC(=O)c1ncn([C@@H]2O[C@H](CO)[C@@H](O)[C@H]2O)n1` [ribavirin], the activity against filoviruses result in the series with filoviruses [9] is on record as “not active”.
Take `Nc1ncnc2c([C@@H]3N[C@H](COP(=O)(O)OP(=O)(O)OP(=O)(O)O)[C@@H](O)[C@H]3O)c[nH]c12` [BCX4430-TP]: the “half-life in the liver” value in series [10] is 372 min. Also, the “RNA chain synthesis by HCV RNA polymerase” value at HCV NS5B RNA polymerase is recorded as “induces premature termination”.
Regarding `Nc1nccc2c1ncn2C1C=C(CO)C(O)C1O` (stereo not shown) [c^3-Npc A, 3-deazaneplanocin A], the “protection against filoviruses in rodents” value in the series with filoviruses [11] is listed as “high-degree of protection”.
`NC(=O)c1nc(F)c[nH]c1=O` [T-705, favipiravir]: the “protection against filoviruses in rodents” value in the series on filoviruses [11] is “high-degree of protection”.
